The record followed here is ChEMBL document CHEMBL1135147, “8-Methoxyquinolines as PDE4 inhibitors” (Bioorg Med Chem Lett, 2002).

Assay [1] has as its target Phosphodiesterase 3 (Homo sapiens) (UniProt Q14432+Q13370). Briefly: Inhibition of human platelet Phosphodiesterase 3 at 20 uM.
Assay [2] has as its target T1, Phosphodiesterase 4 (Homo sapiens, UniProt P27815+Q08499+Q07343+Q08493). Kind of assay: Relative inhibition of PDE4 activity and rolipram binding. Type of assay: protein assay.
For assay [3], the target named is T1, Phosphodiesterase 4. Briefly: Inhibition of Phosphodiesterase 4 from human U937 cells. Type of assay: cell-based. The settings on record: u-937.
Assay [4] deals with Phosphodiesterase 4 (Rattus norvegicus, UniProt P14270+P14646+P14644+P54748). Kind of assay: Inhibition of rolipram binding to PDE4 in rat brain. Type of assay: tissue-based.

Broadly, the inhibition is the change of the read-out against control, counted positive when it falls. Read a low inhibition as a response near the control. For orientation: IC50 means the midpoint of a concentration-inhibition curve. A higher IC50 goes with lower potency. In assay [1], `COc1ccc(C(=O)Nc2c(Cl)cncc2Cl)c2ccc(C(C)=O)nc12` showed an inhibition of 27%. The Ratio at Phosphodiesterase 4 [2] stood at 0.29. The IC50 against Phosphodiesterase 4 [3] came out at 440 nM; on Phosphodiesterase 4 [4], 1500 nM.
`COc1ccc(C(=O)Nc2c(Cl)cncc2Cl)c2ccc(C#N)nc12`: in assay [1], the inhibition was 38%. Further, on Phosphodiesterase 4 [2], the Ratio came out at 16.3. Also, the IC50 against Phosphodiesterase 4 [3] is 700 nM; on Phosphodiesterase 4 [4], 43 nM.
For `COc1ccc(C(=O)Nc2c(Cl)cncc2Cl)c2ccc(C)nc12`, in that order: 21%, 1.19, 88 nM and 74 nM.
In the same order, the values of `CCc1ccc2c(C(=O)Nc3c(Cl)cncc3Cl)ccc(OC)c2n1` are 35%, 0.57, 43 nM and 75.3 nM.
Consider `CCc1cnc2c(OC)ccc(C(=O)Nc3c(Cl)cncc3Cl)c2c1`, for which, in assay [1], the inhibition amounted to 12%. Besides, at Phosphodiesterase 4 [2], the Ratio was 1.31. For the same compound, the IC50 at Phosphodiesterase 4 [3] was determined as 210 nM; on Phosphodiesterase 4 [4], 160 nM.
`COc1ccc(C(=O)Nc2c(Cl)cncc2Cl)c2ccc(C(F)(F)F)nc12` displayed an inhibition in assay [1] of 15%. For the same compound, at Phosphodiesterase 4 [2], the Ratio was determined as 0.66. Moreover, the 50% inhibitory concentration (IC50) at Phosphodiesterase 4 [3] stood at 51 nM; on Phosphodiesterase 4 [4] it was 77 nM.
For the compound `COc1ccc(C(=O)Nc2c(Cl)cncc2Cl)c2cccnc12`, in assay [1], the inhibition came out at 10%.
`CON=C(C)c1ccc2c(C(=O)Nc3c(Cl)cncc3Cl)ccc(OC)c2n1` registered an inhibition in assay [1] of 22%. In addition, the Ratio at Phosphodiesterase 4 [2] worked out at 1.5. Also, the IC50 amounted to 210 nM against Phosphodiesterase 4 [3] and 140 nM on Phosphodiesterase 4 [4].
For `COc1ccc(C(=O)Nc2c(Cl)cncc2Cl)c2ccc(C(C)O)nc12` (stereo not drawn), in that order: 30%, 0.22, 180 nM and 790 nM.
